Experimental data: ChEMBL document CHEMBL1201861, “Genomics of Drug Sensitity in Cancer screening data, Wellcome Trust Sanger Institute”
pIC50: −log10 of the molar value. Values joined by “and” are separate entries in the source; they are usually repeats but may differ in a detail not shown here. Equal entries are not always repeated.

Columns and labels:
D-566MG = experiment: cells; format: functional, cell-based; conditions: Homo sapiens
G-401 = experiment: cells; format: functional, cell-based, Homo sapiens
Description: SANGER: Inhibition of human G-401 cell growth in a cell viability assay.

H-EMC-SS = experiment: cells; format: functional, cell-based; conditions: Homo sapiens
Description: SANGER: Inhibition of human H-EMC-SS cell growth in a cell viability assay.

HCC 2998 = experiment: cells; format: functional, cell-based, Homo sapiens;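 further: growth inhibition of human HCC2998 cells, measured with a cell viability read-out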
Description: SANGER: Inhibition of human HCC2998 cell growth in a cell viability assay.

HSC-4 = experiment: cells; format: functional, cell-based, Homo sapiens;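 further: growth inhibition of human HSC-4 cells, read out with a cell viability assay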
Description: SANGER: Inhibition of human HSC-4 cell growth in a cell viability assay.

HT55 = experiment: cells; format: functional, cell-based, Homo sapiens;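 further: cell viability readout measuring growth inhibition of human HT55 cells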
Description: SANGER: Inhibition of human HT55 cell growth in a cell viability assay.

HuO9 = experiment: cells; format: functional, cell-based, Homo sapiens;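 further: growth inhibition of HuO9 cells, read out with a cell viability assay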
Description: SANGER: Inhibition of human HuO9 cell growth in a cell viability assay.

IGR-1 = experiment: cells; format: functional, cell-based, Homo sapiens;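 further: growth inhibition of human IGR-1 cells, read out with a cell viability assay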
Description: SANGER: Inhibition of human IGR-1 cell growth in a cell viability assay.

JVM-3 = experiment: cells; format: functional, cell-based; conditions: Homo sapiens;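 further: growth inhibition of human JVM-3 cells, read out with a cell viability assay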
Description: SANGER: Inhibition of human JVM-3 cell growth in a cell viability assay.

LAMA-84 = experiment: cells; format: functional, cell-based; conditions: Homo sapiens;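 further: growth inhibition of LAMA-84 cells, read out with a cell viability assay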
Description: SANGER: Inhibition of human LAMA-84 cell growth in a cell viability assay.

LB831-BLC = experiment: cells; format: functional, cell-based, Homo sapiens;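 further: growth inhibition of LB831-BLC cells, read out with a cell viability assay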
Description: SANGER: Inhibition of human LB831-BLC cell growth in a cell viability assay.

LXF-289 cell line = experiment: cells; format: functional, cell-based, Homo sapiens
Description: SANGER: Inhibition of human LXF-289 cell growth in a cell viability assay.

NCI-H1092 = experiment: cells; format: functional, cell-based; conditions: Homo sapiens
Description: SANGER: Inhibition of human NCI-H1092 cell growth in a cell viability assay.

NCI-H1993 = experiment: cells; format: functional, cell-based, Homo sapiens;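 further: growth inhibition of the cancer cell line, assessed with a cell viability assay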
Description: SANGER: Inhibition of human NCI-H1993 cell growth in a cell viability assay.

NCI-H2029 = experiment: cells; format: functional, cell-based; conditions: Homo sapiens;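 further: Read-out is a viability assay on the cultured cells, and IC50 is the concentration that suppresses cell growth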
Description: SANGER: Inhibition of human NCI-H2029 cell growth in a cell viability assay.

NCI-H2405 = experiment: cells; format: functional, cell-based, Homo sapiens;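 further: growth inhibition of the human cell line, read out with a cell viability assay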
Description: SANGER: Inhibition of human NCI-H2405 cell growth in a cell viability assay.

RD = experiment: cells; format: functional, cell-based, Homo sapiens
Description: SANGER: Inhibition of human RD cell growth in a cell viability assay.

SF-539 = experiment: cells; format: functional, cell-based, Homo sapiens;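 further: Read-out is a cell viability assay, with IC50 reflecting inhibition of cell growth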
Description: SANGER: Inhibition of human SF539 cell growth in a cell viability assay.

T-24 = experiment: cells; format: functional, cell-based, Homo sapiens;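 further: growth inhibition of T-24 cells, read out with a cell viability assay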
Description: SANGER: Inhibition of human T-24 cell growth in a cell viability assay.

A3-KAW = experiment: cells; format: functional, cell-based; conditions: Homo sapiens;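 further: growth inhibition of human A3-KAW cells, read out with a cell viability assay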
Description: SANGER: Inhibition of human A3-KAW cell growth in a cell viability assay.

ASPC1 = experiment: cells; format: functional, cell-based, Homo sapiens;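 further: growth inhibition of AsPC-1 cells, read out with a cell viability assay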
Description: SANGER: Inhibition of human AsPC-1 cell growth in a cell viability assay.

BALL-1 = experiment: cells; format: functional, cell-based; conditions: Homo sapiens;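 further: growth inhibition of BALL-1 cells, read out with a cell viability assay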
Description: SANGER: Inhibition of human BALL-1 cell growth in a cell viability assay.

C2BBe1 = experiment: cells; format: functional, cell-based, Homo sapiens;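 further: growth inhibition of C2BBe1 cells, read out through a viability assay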
Description: SANGER: Inhibition of human C2BBe1 cell growth in a cell viability assay.

CAL-12T = experiment: cells; format: functional, cell-based, Homo sapiens;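 further: growth inhibition of human CAL-12T cells, read out with a cell viability assay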
Description: SANGER: Inhibition of human CAL-12T cell growth in a cell viability assay.

TE-9 = experiment: cells; format: functional, cell-based, Homo sapiens;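 further: cell growth inhibition, measured with a cell viability readout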
Description: SANGER: Inhibition of human TE-9 cell growth in a cell viability assay.

TGBC11TKB = experiment: cells; format: functional, cell-based; conditions: Homo sapiens;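 further: growth inhibition of human TGBC11TKB cells, measured by a cell viability assay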
Description: SANGER: Inhibition of human TGBC11TKB cell growth in a cell viability assay.

U-87 MG = experiment: cells; format: functional, cell-based, U-87MG ATCC; conditions: Homo sapiens
Description: SANGER: Inhibition of human U-87-MG cell growth in a cell viability assay.

COR-L279 = experiment: SANGER: Inhibition of human COR-L279 cell growth in a cell viability assay.; format: functional, cell-based
CP66-MEL = experiment: cells; format: functional, cell-based, Homo sapiens;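 further: growth inhibition of CP66-MEL cells determined in a cell viability assay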
Description: SANGER: Inhibition of human CP66-MEL cell growth in a cell viability assay.

CPC-N = experiment: cells; format: functional, cell-based; conditions: Homo sapiens;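 further: growth inhibition of CPC-N cells, with a cell viability assay as the readout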
Description: SANGER: Inhibition of human CPC-N cell growth in a cell viability assay.

GDM-1 = experiment: cells; format: functional, cell-based; conditions: Homo sapiens;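 further: cell viability readout used to measure growth inhibition of human GDM-1 cells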
Description: SANGER: Inhibition of human GDM-1 cell growth in a cell viability assay.

KARPAS-422 = experiment: cells; format: functional, cell-based; conditions: Homo sapiens
Description: SANGER: Inhibition of human KARPAS-422 cell growth in a cell viability assay.

L-540 = experiment: cells; format: functional, cell-based; conditions: Homo sapiens;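 further: growth inhibition of the human L-540 cell line, read out with a viability assay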
Description: SANGER: Inhibition of human L-540 cell growth in a cell viability assay.

LC4-1 = experiment: cells; format: functional, cell-based; conditions: Homo sapiens;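 further: growth inhibition of LC4-1 cells, read out with a cell viability assay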
Description: SANGER: Inhibition of human LC4-1 cell growth in a cell viability assay.

LU-165 = experiment: cells; format: functional, cell-based; conditions: Homo sapiens
Description: SANGER: Inhibition of human LU-165 cell growth in a cell viability assay.

MONO-MAC-6 = experiment: cells; format: functional, cell-based; conditions: Homo sapiens;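 further: cell viability assay measuring growth inhibition of human MONO-MAC-6 cells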
Description: SANGER: Inhibition of human MONO-MAC-6 cell growth in a cell viability assay.

NCI-H1436 = experiment: cells; format: functional, cell-based; conditions: Homo sapiens;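 further: growth suppression of human NCI-H1436 cells, determined with a cell viability readout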
Description: SANGER: Inhibition of human NCI-H1436 cell growth in a cell viability assay.

NCI-H1963 = experiment: cells; format: functional, cell-based; conditions: Homo sapiens;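 further: cell growth inhibition of the human line, determined with a cell viability assay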
Description: SANGER: Inhibition of human NCI-H1963 cell growth in a cell viability assay.

NCI-H2196 = experiment: cells; format: functional, cell-based; conditions: Homo sapiens;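 further: cell viability assay used as the readout of growth inhibition in NCI-H2196 cells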
Description: SANGER: Inhibition of human NCI-H2196 cell growth in a cell viability assay.

NCI-H716 = experiment: cells; format: functional, cell-based; conditions: Homo sapiens;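 further: growth inhibition of human NCI-H716 cells, measured by a cell viability assay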
Description: SANGER: Inhibition of human NCI-H716 cell growth in a cell viability assay.

NCI-H889 = experiment: cells; format: functional, cell-based; conditions: Homo sapiens;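 further: cell growth inhibition of the cell line, read out with a viability assay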
Description: SANGER: Inhibition of human NCI-H889 cell growth in a cell viability assay.

OPM-2 = experiment: cells; format: functional, cell-based; conditions: Homo sapiens;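 further: growth of OPM-2 cells measured with a viability assay, IC50 for suppression of proliferation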
Description: SANGER: Inhibition of human OPM-2 cell growth in a cell viability assay.

P31-FUJ = experiment: cells; format: functional, cell-based; conditions: Homo sapiens;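 further: growth inhibition of P31-FUJ cells, read out with a viability assay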
Description: SANGER: Inhibition of human P31-FUJ cell growth in a cell viability assay.

RL = experiment: cells; format: functional, cell-based; conditions: Homo sapiens
Description: SANGER: Inhibition of human RL cell growth in a cell viability assay.

RL95-2 = experiment: cells; format: functional, cell-based; conditions: Homo sapiens;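 further: RL95-2 growth inhibition determined through a cell viability readout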
Description: SANGER: Inhibition of human RL95-2 cell growth in a cell viability assay.

SIMA = experiment: cells; format: functional, cell-based, Homo sapiens; conditions: sima;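 further: growth inhibition of SIMA cells, measured with a cell viability readout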
Description: SANGER: Inhibition of human SIMA cell growth in a cell viability assay.

SUP-T1 = experiment: cells; format: functional, cell-based; conditions: Homo sapiens;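 further: growth inhibition of human SUP-T1 cells, read out as cell viability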
Description: SANGER: Inhibition of human SUP-T1 cell growth in a cell viability assay.

TALL-1 = experiment: cells; format: functional, cell-based; conditions: Homo sapiens;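 further: growth inhibition of cultured human TALL-1 cells, read out by a cell viability assay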
Description: SANGER: Inhibition of human TALL-1 cell growth in a cell viability assay.

23132-87 = experiment: cells; format: functional, cell-based, Homo sapiens
Description: SANGER: Inhibition of human 23132-87 cell growth in a cell viability assay.

BC-3 = experiment: cells; format: functional, cell-based; conditions: Homo sapiens;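 further: cell viability assay measuring growth inhibition of human BC-3 cells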
Description: SANGER: Inhibition of human BC-3 cell growth in a cell viability assay.

BL-41 = experiment: cells; format: functional, cell-based; conditions: Homo sapiens;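 further: growth inhibition of human BL-41 cells, read out with a cell viability assay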
Description: SANGER: Inhibition of human BL-41 cell growth in a cell viability assay.

BL-70 = experiment: SANGER: Inhibition of human BL-70 cell growth in a cell viability assay.; format: functional, cell-based
TE-441-T = experiment: cells; format: functional, cell-based; conditions: Homo sapiens
Description: SANGER: Inhibition of human TE-441-T cell growth in a cell viability assay.

U-698-M = experiment: cells; format: functional, cell-based; conditions: Homo sapiens
Description: SANGER: Inhibition of human U-698-M cell growth in a cell viability assay.

UACC-812 = experiment: cells; format: functional, cell-based; conditions: Homo sapiens
Description: SANGER: Inhibition of human UACC-812 cell growth in a cell viability assay.

YT = experiment: cells; format: functional, cell-based; conditions: Homo sapiens
Description: SANGER: Inhibition of human YT cell growth in a cell viability assay.

Measured: pIC50

CN(Cc1cnc2nc(N)nc(N)c2n1)c1ccc(C(=O)N[C@@H](CCC(=O)O)C(=O)O)cc1 [METHOTREXATE]
8.05: A3-KAW
< 6.70: D-566MG | G-401; Homo sapiens, G-401 | H-EMC-SS | HCC 2998; Homo sapiens, HCC 2998 | HSC-4; Homo sapiens, HSC-4 | HT55; Homo sapiens, HT55 | HuO9; Homo sapiens, HuO9 | IGR-1; Homo sapiens, IGR-1 | LB831-BLC; Homo sapiens, LB831-BLC | LXF-289 cell line; Homo sapiens, LXF-289 | NCI-H1092 | NCI-H1993; Homo sapiens, NCI-H1993 | NCI-H2029 | NCI-H2405; Homo sapiens, NCI-H2405 | RD; Homo sapiens, RD | SF-539; Homo sapiens, SF-539 | T-24; Homo sapiens, T-24 | ASPC1; Homo sapiens, ASPC1 | BALL-1 | C2BBe1; Homo sapiens, C2BBe1 | CAL-12T; Homo sapiens, CAL-12T | TE-9; Homo sapiens, TE-9 | TGBC11TKB | U-87 MG
7.79: JVM-3
7.91: LAMA-84

Cc1cc([C@@H](C)Nc2ccccc2C(=O)O)c2nc(N3CCOCC3)cc(=O)n2c1 [AZD-6482]
5.81 and 5.39: LXF-289 cell line; lxf-289
5.79 and < 5.29: HuO9; huo9
< 5.29: COR-L279 | CP66-MEL; Homo sapiens, CP66-MEL | CP66-MEL; cp66-mel | CPC-N | H-EMC-SS | HCC 2998; hcc 2998 | HSC-4; hsc-4 | HT55; Homo sapiens, HT55 | HT55; ht55 | IGR-1; igr-1 | JVM-3 | L-540 | LAMA-84 | LB831-BLC; lb831-blc | LC4-1 | LU-165 | MONO-MAC-6 | NCI-H1092 | NCI-H1436 | NCI-H1963 | NCI-H1993; nci-h1993 | NCI-H2029 | NCI-H2196 | NCI-H2405; nci-h2405 | NCI-H716 | NCI-H889 | OPM-2 | P31-FUJ | RD; Homo sapiens, RD | RD; rd | RL | RL95-2 | SF-539; sf-539 | SIMA | SUP-T1 | T-24; t-24 | TALL-1 | 23132-87; Homo sapiens | A3-KAW | ASPC1; aspc1 | BC-3 | BL-41 | C2BBe1; Homo sapiens, C2BBe1 | C2BBe1; c2bbe1 | CAL-12T; cal-12t | TE-441-T | TE-9; te-9 | U-698-M | U-87 MG | UACC-812
5.39 and < 5.29: G-401; g-401
5.31: BL-70
5.47: 23132-87
6.92: YT
5.81: KARPAS-422
5.51: D-566MG
5.65: GDM-1

Cn1cc(C2=C(c3ccc(Cl)cc3Cl)C(=O)NC2=O)c2ccccc21 [SB-216763]
< 5.00: CP66-MEL; Homo sapiens, CP66-MEL | D-566MG | G-401; Homo sapiens, G-401 | H-EMC-SS | HCC 2998; Homo sapiens, HCC 2998 | HSC-4; Homo sapiens, HSC-4 | HuO9; Homo sapiens, HuO9 | IGR-1; Homo sapiens, IGR-1 | JVM-3 | LAMA-84 | LB831-BLC; Homo sapiens, LB831-BLC | LXF-289 cell line; Homo sapiens, LXF-289 | NCI-H1092 | NCI-H2029 | NCI-H2405; Homo sapiens, NCI-H2405 | RD; Homo sapiens, RD | SF-539; Homo sapiens, SF-539 | T-24; Homo sapiens, T-24 | 23132-87; Homo sapiens | A3-KAW | ASPC1; Homo sapiens, ASPC1 | BALL-1 | C2BBe1; Homo sapiens, C2BBe1 | CAL-12T; Homo sapiens, CAL-12T | TE-9; Homo sapiens, TE-9 | TGBC11TKB | U-87 MG
5.08: NCI-H1993; Homo sapiens, NCI-H1993

O=c1cc(-c2cccc3c2Sc2ccccc2S3)oc(N2CCOCC2)c1 [KU-55933]
5.34: LAMA-84
< 5.00: CP66-MEL; Homo sapiens, CP66-MEL | D-566MG | G-401; Homo sapiens, G-401 | H-EMC-SS | HCC 2998; Homo sapiens, HCC 2998 | HT55; Homo sapiens, HT55 | HuO9; Homo sapiens, HuO9 | IGR-1; Homo sapiens, IGR-1 | JVM-3 | LB831-BLC; Homo sapiens, LB831-BLC | LXF-289 cell line; Homo sapiens, LXF-289 | NCI-H1092 | NCI-H1993; Homo sapiens, NCI-H1993 | NCI-H2029 | NCI-H2405; Homo sapiens, NCI-H2405 | RD; Homo sapiens, RD | SF-539; Homo sapiens, SF-539 | T-24; Homo sapiens, T-24 | 23132-87; Homo sapiens | A3-KAW | ASPC1; Homo sapiens, ASPC1 | BALL-1 | C2BBe1; Homo sapiens, C2BBe1 | CAL-12T; Homo sapiens, CAL-12T | TE-9; Homo sapiens, TE-9 | TGBC11TKB | U-87 MG
